Data as given in patent publication US5824696A, “Medicaments” (SmithKline Beecham Corporation, priority 1993, dated 1998).
Residue numbers refer to the chain shown, from its start. Like-named read-outs stand apart in the source and are kept apart here.

Experiments:
[1] = target: T1, angiotensin receptors in human synovium (Homo sapiens, UniProt P30556); experiment: Inhibition of [125I](Sar1, Ile8)AII binding to human synovium, quantitative receptor autoradiography; parameters: Binding of [125I](Sar1, Ile8) angiotensin II in the presence of antagonist: unit not given here; settings: for Binding of [125I](Sar1, Ile8) angiotensin II in the presence of DTT: osteoarthritis; for nHill values / Ki: osteoarthritic synovium; for Ki: 0.25 nM [125I](Sar1, Ile8)AII; for Binding of [125I](Sar1, Ile8) angiotensin II in the presence of antagonist: 10 μM antagonist
T1 construct: Human knee synovium was collected at surgery from patients with osteoarthritis or rheumatoid arthritis; from tissue; host or cells: human knee synovium cryostat sections (osteoarthritis, rheumatoid arthritis, chondromalacia patellae)
T1 sequence (P30556 1-359): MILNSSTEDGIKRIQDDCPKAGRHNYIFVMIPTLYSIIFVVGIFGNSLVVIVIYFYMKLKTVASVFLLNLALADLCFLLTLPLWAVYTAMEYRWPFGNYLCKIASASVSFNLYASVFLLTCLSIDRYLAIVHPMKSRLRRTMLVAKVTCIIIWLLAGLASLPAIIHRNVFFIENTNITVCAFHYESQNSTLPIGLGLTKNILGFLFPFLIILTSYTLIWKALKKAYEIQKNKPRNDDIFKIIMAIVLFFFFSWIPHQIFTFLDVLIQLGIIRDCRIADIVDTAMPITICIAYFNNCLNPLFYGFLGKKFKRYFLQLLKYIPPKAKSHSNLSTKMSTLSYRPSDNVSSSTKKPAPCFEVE
Protocol: Human knee synovium was collected at surgery from patients with osteoarthritis or rheumatoid arthritis undergoing total knee replacement and patients with chondromalacia patellae undergoing carbon fibre resurfacing of articular cartilage. Tissue samples were immediately embedded in Tissue-Tek (Miles Inc., Elkhart, Ind., USA) and frozen to cork mounts in melting isopentane without prior fixation. Specimens were stored at -40° C. until use. […] thick sections were cut in a cryostat and thaw mounted onto Vectabond™ (Vector Laboratories, Peterborough, U.K.) treated slides, air dried and used immediately, or stored at -20° C. with silica gel for up to 5 days until use.
[…] Excess buffer was removed and sections were incubated for 90 minutes with ligand in buffer B (buffer A plus 1% bovine serum albumin). […] Except where stated, incubations were performed at 22° C.
Films were developed in Kodak D9 for 3 minutes at 15° C. […] Synovial structures were identified, where necessary, by comparison of films with tissue sections counterstained with haematoxylin and eosin. Tissue structures (blood vessels, lining cells and regions of subintimal stroma displaying specific binding) were each delineated interactively. Binding was quantified on the 20 blood vessels in each section with the most dense specific binding.
Specific binding was defined as total minus non-specific binding. Characterisation of specific binding was performed on samples of synovium from patients with osteoarthritis.
Kinetic and equilibrium constants were derived from specific binding values by iterative non-linear regression assuming single site models using GraphPAD Inplot4 (San Diego). […] Values for binding inhibition constants (Ki) and HIll coefficients (nHill) were derived by fitting to sigmoid curves.

[2] = target: T2, contractile response to angiotensin II in the isolated rabbit aorta (Oryctolagus cuniculus, UniProt P34976); experiment: Antagonism of angiotensin II induced vasoconstriction in isolated rabbit aorta; settings: rabbit thoracic aorta rings, 30-minute incubation, dose ratio method; read-out: Antagonist dissociation constant (KB)
T2 construct: Ring segments are cut from the rabbit thoracic aorta; from tissue; host or cells: rabbit thoracic aorta ring segments
T2 sequence (P34976 1-359): T1 sequence (P30556 1-359) with I2M, V49A, I254V, I270V, R272H, R311K, T349S, A353V
Protocol: Angiotensin II antagonist activity is assessed by in vitro methods In vitro antagonist activity is determined by the ability of the compounds to compete with ^125 I-angiotensin II for binding to vascular angiotensin II receptors and by their ability to antagonize the contractile response to angiotensin II in the isolated rabbit aorta.
The ability of the compounds to antagonize angiotensin II induced vasoconstriction is examined in the rabbit aorta. Ring segments are cut from the rabbit thoracic aorta and suspended in organ baths containing physiological salt solution. The ring segments are mounted over metal supports and attached to force displacement transducers which are connected to a recorder. Cumulative concentration response curves to angiotensin II are performed in the absence of antagonist or following a 30-minute incubation with antagonist. Antagonist dissociation constants (KB) are calculated by the dose ratio method using the mean effective concentrations. The KB for (E)-3-[2-n-butyl-1-{4-carboxynaphth-1-yl)methyl}-1H-imidazol-5-yl]-2-(2-thienyl)methyl-2-propenoic acid is about 0.15 nM.

[3] = system: angiotensin receptors in human synovium; experiment: Guanine nucleotide sensitivity of [125I]AII binding to human synovium; settings: 1 μM GTPγS

O[C@H](CS)[C@H](O)CS (racemic) [DTT, dithiothreitol]
Inhibition of specific [125I](Sar1, Ile8)AII binding to each structure ([1]; 10 mM DTT): completely inhibited | Binding of [125I](Sar1, Ile8) angiotensin II in the presence of DTT ([1]; blood vessels, 10 mM DTT, total 10.2, nonspecific 3.2): 3.2 (2.9 to 3.5) amol mm^-2 | Binding of [125I](Sar1, Ile8) angiotensin II in the presence of DTT ([1]; lining cells, 10 mM DTT, total 5.1, nonspecific 2.1): 2.0 (1.8 to 2.3) amol mm^-2 | Binding of [125I](Sar1, Ile8) angiotensin II in the presence of DTT ([1]; stroma, 10 mM DTT, total 2.6, nonspecific 1.7): 1.6 (1.5 to 1.7) amol mm^-2

CCCCc1ncc(/C=C(\Cc2cccs2)C(=O)O)n1Cc1ccc(C(=O)O)c2ccccc12 [(E)-3-[2-n-butyl-1-{4-carboxynaphth-1-yl)methyl}-1H-imidazol-5-yl]-2-(2-thienyl)methyl-2-propenoic acid]
Kb [2]: ~0.15 nM

CCCCc1ncc(/C=C(\Cc2cccs2)C(=O)O)n1Cc1ccc(C(=O)O)cc1 [(E)-3-[2-n-butyl-1-{4-carboxyphenyl)methyl}-1H-imidazol-5-yl]-2-(2-thienyl)methyl-2-propenoic acid]
nHill values ([1]; blood vessels): 1.2 | Ki ([1]; blood vessels, read-out: Ki values): 49 nM | Inhibition of binding of [125I](Sar1, Ile8)AII to microvessels, lining cells and stroma ([1]; inflamed human synovium): potently and completely inhibited | nHill values ([1]; lining cells): 0.8 | Ki ([1]; lining cells, read-out: Ki values): 60.3 nM | nHill values ([1]; stroma): 0.8 | Ki ([1]; stroma, read-out: Ki values): 81.3 nM

Nc1nc2c(ncn2[C@@H]2O[C@H](COP(=O)(O)OP(=O)(O)OP(O)(O)=S)[C@@H](O)[C@H]2O)c(=O)[nH]1 [GTPγS, guanosine 5'-O-(3-thiotriphosphate)]
Inhibition of [125I](Sar1, Ile8)AII binding ([1]; 1 μM GTPγS): did not inhibit | Inhibition of binding of agonist [125I]AII to each structure [3]: levels not significantly different from nonspecific binding

Cc1cc(Cn2cnc3c2C[C@@H](C(=O)O)N(C(=O)C(c2ccccc2)c2ccccc2)C3)ccc1N(C)C [PD123319]
Inhibition of specific [125I](Sar1, Ile8)AII binding to each structure ([1]; 10 μM, synovium from patients with osteoarthritis and rheumatoid arthritis): not significantly inhibited | Ki ([1]; Ki values, blood vessels): > 10000 nM | Ki ([1]; Ki values, lining cells): > 10000 nM | Ki ([1]; Ki values, stroma): > 10000 nM | Binding of [125I](Sar1, Ile8) angiotensin II in the presence of antagonist ([1]; blood vessels, OA, total 7.9, nonspecific 2.4): 7.1 | Binding of [125I](Sar1, Ile8) angiotensin II in the presence of antagonist ([1]; blood vessels, RA, total 14, nonspecific 2.6): 12 | Binding of [125I](Sar1, Ile8) angiotensin II in the presence of antagonist ([1]; lining cells, OA, total 3.6, nonspecific 1.6): 3.8 | Binding of [125I](Sar1, Ile8) angiotensin II in the presence of antagonist ([1]; lining cells, RA, total 5.7, nonspecific 1.7): 5.5 | Binding of [125I](Sar1, Ile8) angiotensin II in the presence of antagonist ([1]; stroma, OA, total 2.4, nonspecific 1.5): 2.2 | Binding of [125I](Sar1, Ile8) angiotensin II in the presence of antagonist ([1]; stroma, RA, total 3.0, nonspecific 1.6): 2.9
